Results reported in ChEMBL document CHEMBL1201862, “PubChem BioAssay data set” (2004).
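1) Cells in 96-well plates. 2) Compound, 48 h, 5 concentrations. 3) Linear interpolation between surrounding doses. 4) Unreached endpoint = highest concentration. Here, GI50 denotes the concentration required for 50% inhibition of growth.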 Activity calls are given as the source filed them. Rule as the data show it: active = GI50 up to about 1.1 µM and inactive = higher.

Legend:
Test in all cases: NCI tumour cell line growth inhibition, 48 h
[1] = tested on: NCI-H460
[2] = tested on: SK-MEL-2
[3] = tested on: U-251
[4] = tested on: PC-3
[5] = tested on: SF-268
[6] = tested on: SF-295
[7] = tested on: SNB-75
[8] = tested on: SF-539
[9] = tested on: SK-OV-3
[10] = tested on: RPMI-8226
[11] = tested on: M14
[12] = tested on: HCT-116
[13] = tested on: MDA-MB-231
[14] = tested on: HCT-15
[15] = tested on: Malme-3M
[16] = tested on: SR
[17] = tested on: SK-MEL-28
[18] = tested on: BT-549
[19] = tested on: DU-145
[20] = tested on: HL-60

| SMILES | GI50 [1] | GI50 [2] | GI50 [3] | GI50 [4] | GI50 [5] | GI50 [6] | GI50 [7] | GI50 [8] | GI50 [9] | GI50 [10] | GI50 [11] | GI50 [12] | GI50 [13] | GI50 [14] [µM] | GI50 [15] | GI50 [16] | GI50 [17] | GI50 [18] | GI50 [19] | GI50 [20] |
| --- | --- | --- | --- | --- | --- | --- | --- | --- | --- | --- | --- | --- | --- | --- | --- | --- | --- | --- | --- | --- |
| S=C(N/N=C\c1ccccn1)N(Cc1ccccn1)Cc1ccccn1 | 1.11 µM (active) | 11.6 µM (inactive) | 0.195 µM (active) | 6.89 µM (inactive) | 0.431 µM (active) | 1.65 µM (inactive) | 5.43 µM (inactive) | 4.68 µM (inactive) | 2.04 µM (inactive) | 1.17 µM (inactive) | 1.1 µM (active) | 0.557 µM (active) | 0.419 µM (active) | 0.622 | 1.37 µM (inactive) | 1.42 µM (inactive) | 1.22 µM (inactive) | 1.93 µM (inactive) | 2.29 µM (inactive) | – |
| C=CCC1(O)c2cccc(O)c2C(=O)c2cccc(O)c21 (centres undefined) | 13.9 µM (inactive) | 12 µM (inactive) | 11.9 µM (inactive) | 16.9 µM (inactive) | 23.3 µM (inactive) | 9.35 µM (inactive) | 13.2 µM (inactive) | 31.8 µM (inactive) | – | 11.5 µM (inactive) | 16.2 µM (inactive) | 14.4 µM (inactive) | 21.1 µM (inactive) | 12.2 | – | 6.41 µM (inactive) | 20.5 µM (inactive) | 16.8 µM (inactive) | 17.6 µM (inactive) | 11.7 µM (inactive) |
| OCCN(CCO)c1ccc2c(-c3ccccc3)cc(N(CCO)CCO)nc2n1 | > 100 µM (inactive) | > 100 µM (inactive) | > 100 µM (inactive) | > 100 µM (inactive) | > 100 µM (inactive) | > 100 µM (inactive) | > 100 µM (inactive) | – | > 100 µM (inactive) | > 100 µM (inactive) | > 100 µM (inactive) | > 100 µM (inactive) | > 100 µM (inactive) | > 100 | > 100 µM (inactive) | 20 µM (inactive) | > 100 µM (inactive) | > 100 µM (inactive) | > 100 µM (inactive) | – |
| COc1ccc2c(c1)nc1n2C(N)=Nc2ccccc2S1 | 12.8 µM (inactive) | > 100 µM (inactive) | 18.8 µM (inactive) | 16.5 µM (inactive) | 16.7 µM (inactive) | 44.2 µM (inactive) | > 42.9 µM (inactive) | 33.4 µM (inactive) | 67 µM (inactive) | 8.73 µM (inactive) | 10.6 µM (inactive) | 5.3 µM (inactive) | 52.5 µM (inactive) | 35.4 | 62.2 µM (inactive) | – | > 80.5 µM (inactive) | 48.2 µM (inactive) | 35.5 µM (inactive) | 2.64 µM (inactive) |
| O=C(/C=C1/Nc2ccc([N+](=O)[O-])cc2N/C1=C/C(=O)c1ccc(Cl)cc1)c1ccccc1 | 32 µM (inactive) | 19.9 µM (inactive) | 30.8 µM (inactive) | > 100 µM (inactive) | 30.4 µM (inactive) | 23.4 µM (inactive) | 19.9 µM (inactive) | 30.3 µM (inactive) | 58.7 µM (inactive) | – | > 100 µM (inactive) | 56.9 µM (inactive) | 35 µM (inactive) | > 100 | > 100 µM (inactive) | > 100 µM (inactive) | – | > 100 µM (inactive) | > 100 µM (inactive) | – |
| Cc1ccc(C(=O)CCC2C(=O)CC(C)(C)CC2=O)cc1 | > 100 µM (inactive) | > 100 µM (inactive) | > 100 µM (inactive) | > 100 µM (inactive) | > 100 µM (inactive) | > 100 µM (inactive) | > 100 µM (inactive) | > 100 µM (inactive) | > 100 µM (inactive) | – | > 100 µM (inactive) | > 100 µM (inactive) | > 100 µM (inactive) | > 100 | – | 15.7 µM (inactive) | > 100 µM (inactive) | > 100 µM (inactive) | > 100 µM (inactive) | – |
| COc1ccc(/C=C/C(=O)C(C)(C)Br)cc1 | 18.9 µM (inactive) | 12.2 µM (inactive) | 13.7 µM (inactive) | 11.7 µM (inactive) | 15.2 µM (inactive) | 17.9 µM (inactive) | – | 17.1 µM (inactive) | 22.2 µM (inactive) | 3.42 µM (inactive) | 1.56 µM (inactive) | 2.19 µM (inactive) | 20 µM (inactive) | 2.62 | 13.5 µM (inactive) | 3.3 µM (inactive) | – | 1.92 µM (inactive) | 14.3 µM (inactive) | 19.5 µM (inactive) |
| CSCCCNC(=O)c1csc(-c2csc(C(CNC(=O)OC(C)(C)C)CNC(=O)OC(C)(C)C)n2)n1 | 14.5 µM (inactive) | 27.7 µM (inactive) | 25.6 µM (inactive) | 28.4 µM (inactive) | 76.2 µM (inactive) | 38.6 µM (inactive) | 35 µM (inactive) | 45 µM (inactive) | 60.3 µM (inactive) | 14.3 µM (inactive) | 47 µM (inactive) | 31.4 µM (inactive) | 57.8 µM (inactive) | 43.4 | – | 24.4 µM (inactive) | – | 34.5 µM (inactive) | 76.2 µM (inactive) | – |
| O=C1Nc2ccccc2/C1=N/Nc1nc(-c2cccc([N+](=O)[O-])c2)cs1 | 16.9 µM (inactive) | 31.5 µM (inactive) | 21.4 µM (inactive) | 28.2 µM (inactive) | 19.7 µM (inactive) | 20.7 µM (inactive) | 20.3 µM (inactive) | 24 µM (inactive) | 29.9 µM (inactive) | – | 34.1 µM (inactive) | 19.2 µM (inactive) | 17.7 µM (inactive) | 21.8 | – | 53 µM (inactive) | 19.5 µM (inactive) | 36.3 µM (inactive) | 25.6 µM (inactive) | 25.1 µM (inactive) |
| COc1ccc(NC=O)c(C(O)CCNC(C)=O)c1 (centres undefined) | > 100 µM (inactive) | > 100 µM (inactive) | > 100 µM (inactive) | > 100 µM (inactive) | > 100 µM (inactive) | > 100 µM (inactive) | > 100 µM (inactive) | > 100 µM (inactive) | > 100 µM (inactive) | > 100 µM (inactive) | > 100 µM (inactive) | > 100 µM (inactive) | > 100 µM (inactive) | > 100 | – | > 100 µM (inactive) | – | > 100 µM (inactive) | > 100 µM (inactive) | > 100 µM (inactive) |
| CCCN(CCC)CCc1ccc(OC2=CCN(C)CC2)cc1 | – | > 100 µM (inactive) | > 100 µM (inactive) | > 100 µM (inactive) | 86.1 µM (inactive) | > 100 µM (inactive) | – | – | > 100 µM (inactive) | > 100 µM (inactive) | 15.7 µM (inactive) | 39.8 µM (inactive) | > 100 µM (inactive) | 36.9 | 13.8 µM (inactive) | 28.2 µM (inactive) | 35.3 µM (inactive) | 29.8 µM (inactive) | > 100 µM (inactive) | 35.8 µM (inactive) |
| O=c1c(C(c2ccccn2)c2c(O)oc3cc(O)ccc3c2=O)c(O)oc2cc(O)ccc12 | > 100 µM (inactive) | > 100 µM (inactive) | > 100 µM (inactive) | > 100 µM (inactive) | > 100 µM (inactive) | > 100 µM (inactive) | 66.2 µM (inactive) | > 100 µM (inactive) | > 100 µM (inactive) | > 100 µM (inactive) | > 100 µM (inactive) | > 100 µM (inactive) | > 100 µM (inactive) | > 100 | – | > 100 µM (inactive) | > 100 µM (inactive) | > 100 µM (inactive) | > 100 µM (inactive) | – |
